Experimental data taken from patent US20220117266A1, “NICKEL CHELATION THERAPY” (priority 2019, published 2022).
Where two headings read alike, the source gives them in different places.

Columns and labels:
MDR K. pneumoniae = experiment: Galleria mellonella infection model; format: in vivo; details: 5 μl of 250 mM DMG (approx. 0.38 mg) injected five to ten minutes prior to bacterial challenge
Method: (§1) Attempts to establish a reliable K. pneumoniae infection model in mice failed, so an alternate animal model was chosen.
(§2) Galleria mellonella (wax moth) experiments. Wax moth larvae were obtained from local pet stores, from two different suppliers: the bug company (Ham Lake, Minn.; www.ebugco.com) and Timberline (Marion, Ill.; www.timberlinefresh.com). Larvae were stored in wood shavings at 4° C. in the dark and used within two weeks after purchase. Only larvae weighing 300±50 mg were selected for the experiments. Groups of ten larvae were used for each experiment. The site of injection (last right or left proleg) was disinfected with ethanol 70% (vol/vol) before and after each injection. A 10 μL-Hamilton syringe fitted with a […] needle (Becton Dickinson, Franklin Lakes, N.J.) was used to inject 5 μL. After injection, larvae were kept in 9.2-cm Petri dishes at 37° C. in the dark with no food. Larvae were monitored daily for […] and mortality (as defined by change of pigmentation and absence of response following physical stimulation) was recorded. […] Bacterial suspensions were prepared as follows: cells were grown overnight in 5 mL of Mueller Hinton broth, harvested, washed once, and resuspended in sterile 0.8% NaCl to a final OD600 of 0.1 (approximately 10^8 CFU/mL, as determined by CFU counts on serially diluted samples).

MDR S. Typhimurium = experiment: Galleria mellonella infection model; format: in vivo; details: 5 μl of 250 mM DMG (approx. 0.38 mg) injected five to ten minutes prior to bacterial challenge
Method: as §1, §2

[1] = test system: C. jejuni (strain 81-176, ATCC BAA-2151); experiment: Growth inhibition, solid plates (CFU); format: cell-based, Campylobacter jejuni
[2] = test system: C. concisus (strain 13826, ATCC BAA-1457); experiment: Growth inhibition, solid plates (CFU); format: cell-based, Campylobacter concisus; details: BA plates, 24 hours
Aβ40 peptide = Aβ40 peptide (Homo sapiens, UniProt P05067); experiment: Thioflavin T (ThT)-based Aβ40 aggregation assay; format: biochemical; parameters: purchased rPeptides, Watkinsville, Ga., USA kit #A-1180-1; host or cells: E. coli; details: for remaining activity at 100 µM: DMG 100 μM; for remaining activity at 100 µM / remaining activity at 500 µM / remaining activity at 1000 µM: read-out: Relative Aβ40 aggregation rate (% control); for remaining activity at 500 µM: DMG 500 μM; for remaining activity at 1000 µM: DMG 1000 μM
Method: Amyloid Beta aggregation. […] This kit contained human recombinant Aβ40 peptide (>97% pure, as determined by manufacturer's HPLC) with the following sequence […] (SEQ ID NO:1), as provided by the manufacturer. […] The aggregation of Aβ40, was shown by the increase in fluorescence (lex=440 nm/lem=485 nm) over time, was followed for 60 min or 120 min, with reading every three or five min, using a Synergy MX reader (Biotek, Winooski, Vt.). A ThT-only background control (no Aβ40 peptide) was included in triplicate in all experiments and subtracted from all readings. The aggregation rate, defined as the increase in fluorescence per min (RFU/min), was calculated by using the formula [A(440,485) at T40min)−A(440,485) at T20min]/20.

[3] = experiment B, no supplemental metal
[4] = experiment C, no supplemental metal

Sequence of Aβ40 peptide (P05067 672-711): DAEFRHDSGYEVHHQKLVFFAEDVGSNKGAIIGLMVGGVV

## CC(=NO)C(C)=NO [DMG, dimethylglyoxime]
MDR K. pneumoniae
  survival rate of larvae: 40%
MDR S. Typhimurium
  survival rate of larvae: 60%
[1]; BHI plates, 5 mM DMG + CuSO4 1 μM to 500 μM, no detectable growth (detection limit: 200 CFUs)
  effect on growth (CFUs): bactericidal
[1]; BHI plates, 5 mM DMG, 24 hours
  effect on growth (CFUs, colony size): bacteriostatic
[1]; DMG (2 mM)/Cu (0.5 mM) combination
  effect on growth: bactericidal
[2]; DMG 2 mM
  effect on growth (CFUs, colony size): bacteriostatic
[2]; DMG 4 mM, no CFU detected (detection limit: 200 CFUs)
  effect on growth (CFUs): bactericidal
Aβ40 peptide; 500 mM or 1000 mM DMG (so in the source), no supplemented metal
  inhibition of Aβ40 aggregation: partial or full inhibition
Aβ40 peptide; experiment A, Cu 10 μM
  remaining activity at 100 µM: 54 ± 12%
Aβ40 peptide; experiment A, Ni 10 μM
  remaining activity at 100 µM: 58 ± 11%
Aβ40 peptide; experiment A, Zn 10 μM
  remaining activity at 100 µM: 457 ± 39%
Aβ40 peptide; experiment A, no supplemental metal
  remaining activity at 100 µM: 33 ± 2%
Aβ40 peptide; experiment B, Ni 100 μM
  remaining activity at 100 µM: 410 ± 91%
  remaining activity at 500 µM: < 1%
  remaining activity at 1000 µM: < 1%
Aβ40 peptide; [3]
  remaining activity at 100 µM: 15 ± 14%
  remaining activity at 500 µM: < 1%
  remaining activity at 1000 µM: < 1%
Aβ40 peptide; experiment B, Zn 100 μM
  remaining activity at 500 µM: 833 ± 156%
  remaining activity at 1000 µM: 328 ± 63%
Aβ40 peptide; experiment C, Cu 100 μM
  remaining activity at 100 µM: 66 ± 15%
  remaining activity at 500 µM: 49 ± 8%
  remaining activity at 1000 µM: 40 ± 3%
Aβ40 peptide; [4]
  remaining activity at 100 µM: 48 ± 8%
  remaining activity at 500 µM: 15 ± 5%
  remaining activity at 1000 µM: 21 ± 10%
Aβ40 peptide; increasing amounts of DMG in presence of 100 mM Cu^2+ or Zn^2+ (so in the source)
  inhibition of Aβ40 aggregation: partial inhibition
Aβ40 peptide; increasing amounts of DMG in presence of 100 mM Ni^2+ (so in the source)
  inhibition of Aβ40 aggregation: Complete inhibition
Aβ40 peptide; pH 6.5, 7.5 or 8.5, 25 mM Aβ40, CuSO4 25 mM, ZnSO4 10 mM or DMG 100 mM (so in the source)
  Aβ40 peptide aggregation under all pHs tested: negligible
